Experiments:
Assay in all cases: relative viability (nuclei count vs DMSO), 5 days (fraction); higher = more cells survive
[1] = compound: O=C(NCCCNc1nc(Nc2cccc(NC(=O)N3CCCC3)c2)ncc1I)c1cccs1 [BX 795] + Cc1nc(NC(=O)N2CCC[C@H]2C(N)=O)sc1-c1ccnc(C(C)(C)C(F)(F)F)c1 [Alpelisib] (partner 2 µM)
Method in brief: (§1)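 Five library-drug doses in √10 steps were combined with a fixed anchor-drug dose, or a single drug was given alone, by pin tool to lung cancer cell lines in 1536-well plates the day after seeding. Nuclei were stained and counted after 5 days. Relative viability is the nuclei count in treated wells over that in vehicle wells, taken as the median of duplicate plates.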

[2] = compound: O=C(NCCCNc1nc(Nc2cccc(NC(=O)N3CCCC3)c2)ncc1I)c1cccs1 [BX 795] + CC1(C)CCC(c2ccc(Cl)cc2)=C(CN2CCN(c3ccc(C(=O)NS(=O)(=O)c4ccc(N[C@H](CCN5CCOCC5)CSc5ccccc5)c(S(=O)(=O)C(F)(F)F)c4)cc3)CC2)C1 [Navitoclax] (partner 0.5 µM)
Method in brief: as §1

[3] = compound: O=C(NCCCNc1nc(Nc2cccc(NC(=O)N3CCCC3)c2)ncc1I)c1cccs1 [BX 795] + COc1cccc2cc(-c3nc([C@H]4CC[C@H](C(=O)O)CC4)n4ncnc(N)c34)[nH]c12 [OSI-027] (partner 0.5 µM)
Method in brief: as §1

[4] = compound: O=C(NCCCNc1nc(Nc2cccc(NC(=O)N3CCCC3)c2)ncc1I)c1cccs1 [BX 795] + COc1cc2c(Oc3ccc(NC(=O)C4(C(=O)Nc5ccc(F)cc5)CC4)cc3F)ccnc2cc1OCCCN1CCOCC1 [Foretinib] (partner 0.25 µM)
Method in brief: as §1

[5] = compound: O=C(NCCCNc1nc(Nc2cccc(NC(=O)N3CCCC3)c2)ncc1I)c1cccs1 [BX 795] + O=C(c1cc(Cc2n[nH]c(=O)c3ccccc23)ccc1F)N1CCN(C(=O)C2CC2)CC1 [Olaparib] (partner 8 µM)
Method in brief: as §1

Cell Line	relative viability ([1]; first compound 0.04 µM)	relative viability ([1]; first compound 0.1265 µM)	relative viability ([1]; first compound 0.4 µM)	relative viability ([1]; first compound 1.265 µM)	relative viability ([2]; first compound 0.04 µM)	relative viability ([2]; first compound 0.1265 µM)	relative viability ([2]; first compound 0.4 µM)	relative viability ([2]; first compound 1.265 µM)	relative viability ([3]; first compound 0.04 µM)	relative viability ([3]; first compound 0.1265 µM)	relative viability ([3]; first compound 0.4 µM)	relative viability ([3]; first compound 1.265 µM)	relative viability ([4]; first compound 0.04 µM)	relative viability ([4]; first compound 0.1265 µM)	relative viability ([4]; first compound 0.4 µM)	relative viability ([4]; first compound 1.265 µM)	relative viability ([5]; first compound 0.04 µM)	relative viability ([5]; first compound 0.1265 µM)	relative viability ([5]; first compound 0.4 µM)	relative viability ([5]; first compound 1.265 µM)
201T	1.01	1.02	1.1	1.03	1.18	1.21	1.24	1.21	0.946	0.675	0.775	0.824	1.2	1.13	0.952	1.21	0.657	0.851	0.899	0.856
A549	0.761	0.731	0.6	0.267	1.19	1.24	1.47	0.739	–	–	–	–	0.911	1.02	1.03	0.647	0.495	0.379	0.279	0.219
A-427	1.1	1.1	1.1	1.03	0.97	1.02	1.01	0.788	0.514	0.476	0.51	0.299	0.98	1.12	1.07	0.897	0.826	0.68	0.672	0.641
ABC-1	1.17	1.25	0.911	0.764	–	–	–	–	0.577	0.512	0.459	0.33	1.03	1.05	0.929	0.601	1.07	–	0.962	0.526
BEN	1.06	1.16	1.06	0.995	0.0771	0.0586	0.0606	0.0858	0.264	0.297	0.257	0.26	0.54	0.645	0.818	0.803	1.19	1.34	0.797	1.04
CAL-12T	1.12	1.5	1.29	0.285	1.08	1.23	1.25	0.497	0.726	0.834	0.669	0.186	1.16	1.13	0.873	1.07	0.877	0.769	0.725	0.41
COR-L23	0.882	0.838	0.98	0.356	1.15	1.02	1.02	0.524	0.843	0.769	0.82	0.501	1.07	0.97	0.909	0.715	0.328	0.311	0.247	0.166
ChaGo-K-1	–	–	–	–	0.817	0.919	0.933	0.982	0.632	0.553	0.548	0.432	0.993	0.89	0.982	0.767	0.424	0.447	0.415	0.311
HCC-44	0.742	0.865	0.85	0.543	0.872	1.05	1.02	0.708	0.483	0.472	0.564	0.45	–	–	–	–	0.995	1.01	1.06	1
IA-LM	0.844	0.636	0.614	0.666	0.755	0.725	0.952	0.52	–	–	–	–	1.15	1.19	1.28	0.628	0.783	0.797	0.768	0.757
LCLC-103H	0.944	1.1	1.05	1.01	–	–	–	–	0.476	0.528	0.488	0.501	0.848	0.843	0.847	0.621	0.794	0.73	0.761	0.763
NCI-H358	0.95	0.642	0.822	0.281	–	–	–	–	0.761	0.796	0.666	0.513	0.656	0.837	0.532	0.393	0.724	0.709	0.486	0.368
NCI-H650	1.09	1.07	1.02	0.7	–	–	–	–	0.527	0.556	0.559	0.391	1.06	0.935	0.927	0.911	0.451	0.367	0.412	0.259
NCI-H661	0.85	0.834	0.686	0.704	–	–	–	–	0.514	0.688	0.554	0.511	1.09	1.04	1.03	0.908	0.742	0.826	0.662	0.583
NCI-H1650	–	–	–	–	1.17	1.12	1.41	0.649	0.687	0.703	0.53	0.414	1.24	1.06	0.668	0.792	0.903	0.713	0.711	0.814
NCI-H1792	0.705	0.904	0.706	0.572	0.624	0.556	0.708	0.568	0.765	0.728	0.702	0.53	–	–	–	–	0.401	–	0.302	0.422
NCI-H2342	–	–	–	–	–	–	–	–	0.66	0.569	0.591	0.637	1.17	0.896	1.07	0.914	0.497	0.448	0.479	0.357
SW 900	–	–	–	–	–	–	–	–	0.679	0.521	0.487	0.423	0.938	1.04	0.968	0.569	0.755	–	1.25	0.775

— the supplement of paper PMC10307832
